Measurements from PubChem BioAssay (NCI).
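Interpolation was linear, between the two tested concentrations surrounding the appropriate level; five concentrations were tested over 48 hours in 96-well plates. Here, GI50 denotes the concentration required for 50% inhibition of growth. Definition used: TGI = concentration required for complete inhibition of growth.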

How the values were obtained:
Experiment in all cases: NCI tumour cell line growth inhibition, 48 h
786-0 renal = system: 786-0 renal
A498 renal = system: A498 renal
A549 NSCLC = system: A549 NSCLC
ACHN renal = system: ACHN renal
BT-549 breast = system: BT-549 breast
CAKI-1 renal = system: CAKI-1 renal
CCRF-CEM leukemia = system: CCRF-CEM leukemia
COLO 205 colon = system: COLO 205 colon
DU-145 prostate = system: DU-145 prostate
EKVX NSCLC = system: EKVX NSCLC
HCC-2998 colon = system: HCC-2998 colon
HCT-116 colon = system: HCT-116 colon
HCT-15 colon = system: HCT-15 colon
HL-60(TB) leukemia = system: HL-60(TB) leukemia
HOP-62 NSCLC = system: HOP-62 NSCLC
HOP-92 NSCLC = system: HOP-92 NSCLC
HS 578T breast = system: HS 578T breast
HT29 colon = system: HT29 colon
IGROV1 ovarian = system: IGROV1 ovarian
K-562 leukemia = system: K-562 leukemia
KM12 colon = system: KM12 colon
LOX IMVI melanoma = system: LOX IMVI melanoma
M14 melanoma = system: M14 melanoma
MALME-3M melanoma = system: MALME-3M melanoma
MCF7 breast = system: MCF7 breast
MDA-MB-231 breast = system: MDA-MB-231 breast
MDA-MB-435 = system: MDA-MB-435
MOLT-4 leukemia = system: MOLT-4 leukemia
NCI-H226 lung = system: NCI-H226 lung
NCI-H23 lung = system: NCI-H23 lung
NCI-H460 lung = system: NCI-H460 lung
NCI-H522 lung = system: NCI-H522 lung
NCI/ADR-RES ovarian = system: NCI/ADR-RES ovarian
OVCAR-3 ovarian = system: OVCAR-3 ovarian
OVCAR-4 ovarian = system: OVCAR-4 ovarian
OVCAR-5 ovarian = system: OVCAR-5 ovarian
OVCAR-8 ovarian = system: OVCAR-8 ovarian
PC-3 prostate = system: PC-3 prostate
RPMI-8226 leukemia = system: RPMI-8226 leukemia
RXF 393 renal = system: RXF 393 renal
SF-268 CNS = system: SF-268 CNS
SF-295 CNS = system: SF-295 CNS
SF-539 CNS = system: SF-539 CNS
SK-MEL-2 melanoma = system: SK-MEL-2 melanoma
SK-MEL-28 melanoma = system: SK-MEL-28 melanoma
SK-MEL-5 melanoma = system: SK-MEL-5 melanoma
SK-OV-3 ovarian = system: SK-OV-3 ovarian
SN12C renal = system: SN12C renal
SNB-19 CNS = system: SNB-19 CNS
SNB-75 CNS = system: SNB-75 CNS
SR leukemia = system: SR leukemia
SW-620 colon = system: SW-620 colon
T-47D breast = system: T-47D breast
TK-10 renal = system: TK-10 renal
U251 CNS = system: U251 CNS
UACC-257 melanoma = system: UACC-257 melanoma
UACC-62 melanoma = system: UACC-62 melanoma
UO-31 renal = system: UO-31 renal

## CCCSc1ccc2nc(NC(=O)OC)[nH]c2c1
786-0 renal
  GI50: 634 nM
  TGI: > 100000 nM
A498 renal
  GI50: 258 nM
  TGI: 5030 nM
A549 NSCLC
  GI50: 438 nM
  TGI: > 100000 nM
ACHN renal
  GI50: 2640 nM
  TGI: > 100000 nM
BT-549 breast
  GI50: 1500 nM
  TGI: > 100000 nM
CAKI-1 renal
  TGI: > 100000 nM
CCRF-CEM leukemia
  GI50: 276 nM
  TGI: > 100000 nM
COLO 205 colon
  GI50: 241 nM
  TGI: 702 nM
DU-145 prostate
  GI50: 336 nM
  TGI: > 71500 nM
EKVX NSCLC
  GI50: > 37000 nM
  TGI: > 100000 nM
HCC-2998 colon
  GI50: 1010 nM
  TGI: > 33800 nM
HCT-116 colon
  GI50: 416 nM
  TGI: > 100000 nM
HCT-15 colon
  GI50: 366 nM
  TGI: > 100000 nM
HL-60(TB) leukemia
  GI50: 228 nM
  TGI: 791 nM
HOP-62 NSCLC
  GI50: 380 nM
  TGI: > 68700 nM
HOP-92 NSCLC
  GI50: 712 nM
  TGI: > 100000 nM
HS 578T breast
  GI50: 378 nM
  TGI: > 100000 nM
HT29 colon
  GI50: 235 nM
IGROV1 ovarian
  GI50: 1370 nM
  TGI: > 100000 nM
K-562 leukemia
  GI50: 76.2 nM
  TGI: > 100000 nM
KM12 colon
  GI50: 206 nM
  TGI: > 100000 nM
LOX IMVI melanoma
  GI50: 718 nM
  TGI: > 100000 nM
M14 melanoma
  GI50: 260 nM
MALME-3M melanoma
  GI50: 425 nM
  TGI: > 100000 nM
MCF7 breast
  GI50: 380 nM
  TGI: > 100000 nM
MDA-MB-231 breast
  GI50: 1060 nM
  TGI: > 100000 nM
MDA-MB-435
  GI50: 34.8 nM
  TGI: 202 nM
MOLT-4 leukemia
  GI50: 547 nM
  TGI: > 100000 nM
NCI-H226 lung
  GI50: 456 nM
  TGI: 5970 nM
NCI-H23 lung
  GI50: 585 nM
  TGI: > 100000 nM
NCI-H460 lung
  GI50: 342 nM
  TGI: > 100000 nM
NCI-H522 lung
  GI50: 202 nM
  TGI: 666 nM
NCI/ADR-RES ovarian
  GI50: 227 nM
OVCAR-3 ovarian
  GI50: 196 nM
  TGI: 509 nM
OVCAR-4 ovarian
  GI50: 792 nM
  TGI: > 100000 nM
OVCAR-5 ovarian
  GI50: 2080 nM
  TGI: > 100000 nM
OVCAR-8 ovarian
  GI50: 486 nM
  TGI: > 100000 nM
PC-3 prostate
  GI50: 354 nM
  TGI: > 100000 nM
RPMI-8226 leukemia
  GI50: 378 nM
  TGI: > 100000 nM
RXF 393 renal
  GI50: 208 nM
  TGI: 598 nM
SF-268 CNS
  GI50: 1340 nM
  TGI: > 100000 nM
SF-295 CNS
  GI50: 290 nM
  TGI: > 32800 nM
SF-539 CNS
  GI50: 323 nM
  TGI: > 24400 nM
SK-MEL-2 melanoma
  GI50: 538 nM
  TGI: > 100000 nM
SK-MEL-28 melanoma
  GI50: 952 nM
  TGI: > 100000 nM
SK-MEL-5 melanoma
  GI50: 290 nM
  TGI: > 100000 nM
SK-OV-3 ovarian
  GI50: 285 nM
  TGI: 2910 nM
SN12C renal
  GI50: 823 nM
  TGI: > 100000 nM
SNB-19 CNS
  GI50: 525 nM
  TGI: > 100000 nM
SNB-75 CNS
  GI50: 143 nM
SR leukemia
  GI50: 48.2 nM
SW-620 colon
  GI50: 223 nM
  TGI: > 100000 nM
T-47D breast
  GI50: 298 nM
  TGI: > 100000 nM
TK-10 renal
  GI50: > 100000 nM
  TGI: > 100000 nM
U251 CNS
  GI50: 411 nM
  TGI: > 100000 nM
UACC-257 melanoma
  TGI: > 100000 nM
UACC-62 melanoma
  GI50: 626 nM
  TGI: > 100000 nM
UO-31 renal
  GI50: 890 nM
  TGI: > 100000 nM
